Results on eleven compounds are retold here after ChEMBL document CHEMBL1201862, “PubChem BioAssay data set” (2004).

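Five compound concentrations were applied to cells in 96-well plates for 48 hours; endpoints were derived by simple linear interpolation of the resulting dose-response curve. Abbreviation: GI50, concentration required for 50% inhibition of growth.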 Active and inactive are the calls of the source. No stated cut-off is given here; in the data, active = GI50 up to about 1.1 µM and inactive = higher.

Test systems include SR; OVCAR-8; UACC-257; MDA-N; KM12; NCI/ADR-RES; ACHN; OVCAR-5; NCI-H522; TK-10; SK-MEL-28; HOP-62; LOX IMVI; SW-620; HT-29; HCT-116; DU-145; A549; IGROV-1; HL-60.
Holding throughout (assay): NCI anticancer screen, dose series, 48 h

As for `CC(C)CC(=O)CC(O)C(Cl)(Cl)Cl` (stereo not given), the GI50 with SR, in the assay on OVCAR-8, in the assay on UACC-257, in the assay on MDA-N, in the assay with KM12 and in the assay with NCI/ADR-RES was > 100 µM (inactive) throughout. The GI50 with ACHN is > 100 µM (inactive); with OVCAR-5 it was > 100 µM (inactive); in the assay on NCI-H522, 3.95 µM (inactive); in the assay with TK-10 it was > 100 µM (inactive); in the assay on SK-MEL-28, > 100 µM (inactive); in the assay on HOP-62, > 100 µM (inactive). Moreover, the GI50 with LOX IMVI, in the assay on SW-620, with HT-29, in the assay with HCT-116, in the assay on DU-145 and with A549 was > 100 µM (inactive) each time. For the same compound, in the assay with IGROV-1, the GI50 was > 100 µM (inactive).

Take `CCCCc1ccc(-n2c(C)c(COC(=O)NC)c(COC(=O)NC)c2C)cc1`: the GI50 with SR is 0.818 µM (active); in the assay on HL-60, 3.56 µM (inactive); in the assay with OVCAR-8, 4.16 µM (inactive); in the assay with UACC-257, 10.6 µM (inactive); in the assay with MDA-N, 13.2 µM (inactive); with KM12, 12.7 µM (inactive). In addition, the GI50 with NCI/ADR-RES was 5.55 µM (inactive); with ACHN, 2.11 µM (inactive); with OVCAR-5, 4.78 µM (inactive); in the assay with NCI-H522, 2.64 µM (inactive); in the assay on TK-10, 2.28 µM (inactive); with SK-MEL-28, 19.1 µM (inactive). In addition, the GI50 with HOP-62 is 8.97 µM (inactive); with LOX IMVI, 4.65 µM (inactive); with SW-620 it was 6.46 µM (inactive); with HT-29, 11.1 µM (inactive); with HCT-116 it was 4.08 µM (inactive); in the assay on DU-145, 6.98 µM (inactive). In addition, the GI50 in the assay on A549 is 6.08 µM (inactive).

For the compound `Cc1ccc(C(=O)/C=C2\Nc3cccnc3NC2=O)cc1`, the GI50 is > 100 µM (inactive) in the assay on SR; > 100 µM (inactive) in the assay with HL-60; 51.2 µM (inactive) in the assay with OVCAR-8; > 100 µM (inactive) with UACC-257; > 100 µM (inactive) in the assay on MDA-N; > 100 µM (inactive) in the assay with KM12. The GI50 was > 100 µM (inactive) in the assay on NCI/ADR-RES; > 100 µM (inactive) in the assay on ACHN; > 100 µM (inactive) in the assay with OVCAR-5; 16.6 µM (inactive) in the assay with NCI-H522; > 100 µM (inactive) in the assay with TK-10; > 100 µM (inactive) in the assay on SK-MEL-28. In addition, the GI50 in the assay with HOP-62 was 33.6 µM (inactive); in the assay with LOX IMVI, > 100 µM (inactive); in the assay with HT-29, > 100 µM (inactive); in the assay with HCT-116, > 100 µM (inactive); in the assay with DU-145, > 100 µM (inactive); in the assay with A549, > 100 µM (inactive). For the same compound, the GI50 with IGROV-1 was > 100 µM (inactive).

Turning to `Cc1nc(N)c(N2CCN([N+](=O)[O-])CC2)c(O)n1`, the GI50 with SR, in the assay on HL-60, in the assay with OVCAR-8, in the assay on UACC-257, in the assay with MDA-N and in the assay with KM12 was > 100 µM (inactive) in each case. In addition, the GI50 in the assay on NCI/ADR-RES, in the assay with ACHN, in the assay on OVCAR-5, in the assay with NCI-H522, in the assay on TK-10 and in the assay with SK-MEL-28 was > 100 µM (inactive) throughout. Besides, the GI50 in the assay on HOP-62, in the assay with LOX IMVI, in the assay on SW-620, in the assay on HT-29, in the assay with HCT-116 and in the assay with DU-145 was > 100 µM (inactive) in each case. Further, in the assay with A549, the GI50 is > 100 µM (inactive).

As for `CCCCCCCCCC[S+]([O-])CC(CO)NC(=O)/C=C/c1c(C)nc(O)nc1O` (stereo not given), the GI50 with SR is 65.2 µM (inactive); in the assay on HL-60, 0.815 µM (active); in the assay on UACC-257 it was 1.33 µM (inactive); in the assay with MDA-N, 25.1 µM (inactive); with KM12, 0.202 µM (active); with NCI/ADR-RES, 4.43 µM (inactive). For the same compound, the GI50 in the assay with ACHN is 13.4 µM (inactive); in the assay on OVCAR-5, 1.71 µM (inactive); in the assay on NCI-H522, 0.0938 µM (active); in the assay with TK-10, 1.76 µM (inactive); with SK-MEL-28 it was 1.21 µM (inactive); with HOP-62, 1.06 µM (active). For the same compound, the GI50 is 0.877 µM (active) with LOX IMVI; 0.535 µM (active) in the assay with SW-620; 1.36 µM (inactive) in the assay on HT-29; 43.4 µM (inactive) with DU-145; 2.22 µM (inactive) in the assay with A549; 0.959 µM (active) in the assay with IGROV-1.

Regarding `CC(=O)O[C@H]1CC[C@@]2(C)C(=CC[C@@H]3[C@@H]2CC[C@]2(C)NC(=O)/C(=C\c4ccccc4)C[C@@H]32)C1`, the GI50 with SR is 55 µM (inactive); in the assay on OVCAR-8 it was 20.5 µM (inactive); in the assay with UACC-257, 17.5 µM (inactive); in the assay with MDA-N, 19.6 µM (inactive); in the assay with KM12 it was 18.1 µM (inactive); with NCI/ADR-RES, 24.5 µM (inactive). The GI50 is 21.9 µM (inactive) with ACHN; 17.7 µM (inactive) in the assay with OVCAR-5; 15.6 µM (inactive) in the assay on NCI-H522; 29.9 µM (inactive) in the assay with TK-10; 16.8 µM (inactive) in the assay with SK-MEL-28; 13.2 µM (inactive) with HOP-62. The GI50 is 17 µM (inactive) in the assay on LOX IMVI; 20.2 µM (inactive) in the assay with SW-620; 15 µM (inactive) in the assay on HT-29; 15.6 µM (inactive) in the assay with HCT-116; 15.9 µM (inactive) in the assay on DU-145; 17.1 µM (inactive) with A549. Besides, the GI50 in the assay on IGROV-1 is 21.4 µM (inactive).

In the case of `CCOC(=O)N/N=C(\CC)OCC`, the GI50 with SR, in the assay with HL-60, in the assay on OVCAR-8, with UACC-257, with MDA-N and with KM12 was > 100 µM (inactive) in each case. The GI50 in the assay with NCI/ADR-RES, in the assay on ACHN, with OVCAR-5, with NCI-H522, with TK-10 and in the assay on HOP-62 was > 100 µM (inactive) throughout. Moreover, the GI50 in the assay with LOX IMVI, in the assay with HCT-116, in the assay on DU-145, in the assay with A549 and in the assay with IGROV-1 was > 100 µM (inactive) each time.

In the case of `Cc1ccc(S(=O)(=O)N2CC3OC(C)(C)OC3C2CO)cc1` (stereo not given), the GI50 in the assay with SR, in the assay with OVCAR-8, in the assay on UACC-257, with MDA-N, in the assay on KM12 and in the assay on NCI/ADR-RES was > 100 µM (inactive) in each case. Also, the GI50 in the assay with ACHN, in the assay with OVCAR-5, in the assay with NCI-H522, in the assay on TK-10, with SK-MEL-28 and in the assay with HOP-62 was > 100 µM (inactive) throughout. The GI50 in the assay on SW-620, with HT-29, with HCT-116, with DU-145, with A549 and with IGROV-1 was > 100 µM (inactive) each time.

For `O=c1nc2n(CCO)c(-c3ccccc3)c(-c3ccccc3)nc-2c(=O)[nH]1`, the GI50 was 40.6 µM (inactive) with SR; > 100 µM (inactive) in the assay with OVCAR-8; > 100 µM (inactive) in the assay on UACC-257; > 100 µM (inactive) in the assay on MDA-N; > 100 µM (inactive) with KM12; > 100 µM (inactive) with NCI/ADR-RES. Further, the GI50 in the assay with ACHN, in the assay with OVCAR-5, with NCI-H522, in the assay with TK-10, in the assay on SK-MEL-28 and in the assay on HOP-62 was > 100 µM (inactive) throughout. For the same compound, the GI50 in the assay on LOX IMVI, with SW-620, in the assay with HT-29, in the assay on HCT-116, in the assay on DU-145 and in the assay on A549 was > 100 µM (inactive) each time. Moreover, the GI50 with IGROV-1 is > 100 µM (inactive).

As to `S=C1CC(c2ccccc2)Sc2ccc(Cl)cc2N1` (stereo not given), the GI50 in the assay on SR is 20.8 µM (inactive); with HL-60 it was 24.4 µM (inactive); in the assay on OVCAR-8 it was 43.4 µM (inactive); with UACC-257 it was 18.1 µM (inactive); with MDA-N it was 38.8 µM (inactive); in the assay with KM12, 56.6 µM (inactive). In addition, the GI50 in the assay with NCI/ADR-RES is 86.3 µM (inactive); in the assay on ACHN it was 58.1 µM (inactive); with OVCAR-5 it was > 100 µM (inactive); with NCI-H522 it was 25.8 µM (inactive); in the assay on TK-10, 36.8 µM (inactive); in the assay on SK-MEL-28 it was 41.1 µM (inactive). Moreover, the GI50 in the assay with HOP-62 was 45.6 µM (inactive); in the assay with LOX IMVI, > 100 µM (inactive); in the assay with HT-29 it was 60.7 µM (inactive); in the assay on HCT-116, 21.2 µM (inactive); in the assay on DU-145 it was 42.9 µM (inactive); in the assay with A549, 34.8 µM (inactive). Also, the GI50 in the assay on IGROV-1 is 90.8 µM (inactive).

For the compound `COc1cc(O)c2c(O)c3c(=O)oc(C)cc3c(OC)c2c1` [PAEPALANTINE], the GI50 with SR was 26.1 µM (inactive); in the assay on HL-60 it was 27.3 µM (inactive); in the assay on OVCAR-8 it was 27.2 µM (inactive); in the assay with UACC-257, 31 µM (inactive); in the assay on MDA-N it was 27.4 µM (inactive); in the assay with KM12, 27.5 µM (inactive). Besides, the GI50 with NCI/ADR-RES is 19.6 µM (inactive); with ACHN it was 23.7 µM (inactive); in the assay on OVCAR-5 it was 32 µM (inactive); with NCI-H522, 35.4 µM (inactive); in the assay on TK-10 it was 29 µM (inactive); in the assay with SK-MEL-28, 25 µM (inactive). Further, the GI50 in the assay on HOP-62 is 30.3 µM (inactive); in the assay on SW-620, 34.2 µM (inactive); in the assay with HT-29, 21.2 µM (inactive); in the assay with HCT-116, 20.6 µM (inactive); in the assay on DU-145, 41.6 µM (inactive); in the assay on A549 it was 25.8 µM (inactive). In addition, in the assay with IGROV-1, the GI50 is 27 µM (inactive).
